# Source: patent US8952034B2, “Fused heterocyclic compounds as ion channel modulators” (Gilead Sciences, Inc., priority 2009, dated 2015)
# Biological target: wild-type human cardiac sodium channel, hNav1.5 (Homo sapiens, UniProt Q14524)
# Test: Late INa screening assay (automated whole cell patch clamp, PatchXpress)
# Type: cell-based
# Conditions: HEK293 cells expressing hNav1.5, late INa generated with 10 μM Tefluthrin (or 50 nM ATX II); for inhibition at 10 µM: compound at 10 μM, read-out: LateINa_10 uM (percent block of late INa); for inhibition at 1 µM: compound at 1 μM, read-out: LateINa_1 uM (percent block of late INa)
# Description: The late sodium current (Late INa) and peak sodium current (Peak INa) assays are performed on an automated electrophysiology platform, PatchXpress 7000A (MDS Analytical Technologies, Sunnyvale, Calif.), which uses the whole cell patch clamp technique to measure currents through the cell membrane of up to 16 cells at a time. The assay uses an HEK293 (human embryonic kidney) cell line heterologously expressing the wild-type human cardiac sodium channel, hNav1.5, purchased from Millipore (Billerica, Mass.). No beta subunits were coexpressed with the Na channel alpha subunit. Cells are maintained with standard tissue culture procedures and stable channel expression is maintained with 400 μg/ml Geneticin in the culture medium. […] Experiments are carried out at 24-27° C.
# For both the Late INa and Peak INa assays, series resistance compensation is set to 50% and whole-cell compensation is performed automatically. […] Currents through open sodium channels are automatically recorded and stored in the DataXpress2 database (MDS Analytical Technologies, Sunnyvale, Calif.). Analysis is performed using DataXpress2 analysis software and data are compiled in Excel.
# Compound stocks are routinely made in glass vials to 10 mM in dimethyl sulfoxide (DMSO). In some cases, when compounds are not soluble in DMSO, they are made in 100% ethanol. Stocks are sonicated as necessary. The extracellular solution for screening Late INa is composed of: 140 mM NaCl, 4 mM KCl, 1.8 mM CaCl2, 0.75 mM MgCl2, and 5 mM HEPES with pH adjusted to 7.4 using NaOH. The extracellular solution for screening Peak INa is composed of: 20 mM NaCl, 120 mM N-methyl-D glucamine, 4 mM KCl, 1.8 mM CaCl2, 0.75 mM MgCl2, and 5 mM HEPES with pH adjusted to 7.4 using HCl. The intracellular solution used to perfuse the inside of the cells for both the Late INa and Peak INa assays contains: 120 mM CsF, 20 mM CsCl, 5 mM EGTA, 5 mM HEPES and pH adjusted to 7.4 with CsOH. […] The 0Na extracellular solution used at the end of each experiment for the Late INa and Peak INa assays to measure baseline current contains: 140 mM N-methyl-D-glucamine; 4 mM KCl; 1.8 mM CaCl2; 0.75 mM MgCl2; 5 mM HEPES and pH was adjusted to 7.4 with HCl.
# For the Late INa assay, sodium channels are activated every 10 seconds (0.1 Hz) by depolarizing the cell membrane to −20 mV for 250 milliseconds (ms) from a holding potential of −120 mV. In response to a −20 mV voltage step, typical Nav1.5 sodium currents activate rapidly to a peak negative current and then inactivate nearly completely within […].
# All compounds are tested to determine their activity in blocking the late sodium current. Late INa current is generated by adding 10 μM Tefluthrin (pyrethroid) to the extracellular solution while recording Na currents For some experiments, 50 nM ATX II (sea anemone toxin), another late INa activator, was used to generate the late component. […] After establishing the whole cell recording configuration, late INa activators are added to each well 4 times over a 16-17 minute period so that the late component of the Na current reaches a stable value. […] Measurements are made at the end of exposure to the third compound addition and values are normalized to the current level when all Na^+ is removed from the extracellular solution after two additions of 0Na-ECF. Results are reported as percent block of late INa
# wild-type human cardiac sodium channel, hNav1.5, sequence (Q14524 whole entry): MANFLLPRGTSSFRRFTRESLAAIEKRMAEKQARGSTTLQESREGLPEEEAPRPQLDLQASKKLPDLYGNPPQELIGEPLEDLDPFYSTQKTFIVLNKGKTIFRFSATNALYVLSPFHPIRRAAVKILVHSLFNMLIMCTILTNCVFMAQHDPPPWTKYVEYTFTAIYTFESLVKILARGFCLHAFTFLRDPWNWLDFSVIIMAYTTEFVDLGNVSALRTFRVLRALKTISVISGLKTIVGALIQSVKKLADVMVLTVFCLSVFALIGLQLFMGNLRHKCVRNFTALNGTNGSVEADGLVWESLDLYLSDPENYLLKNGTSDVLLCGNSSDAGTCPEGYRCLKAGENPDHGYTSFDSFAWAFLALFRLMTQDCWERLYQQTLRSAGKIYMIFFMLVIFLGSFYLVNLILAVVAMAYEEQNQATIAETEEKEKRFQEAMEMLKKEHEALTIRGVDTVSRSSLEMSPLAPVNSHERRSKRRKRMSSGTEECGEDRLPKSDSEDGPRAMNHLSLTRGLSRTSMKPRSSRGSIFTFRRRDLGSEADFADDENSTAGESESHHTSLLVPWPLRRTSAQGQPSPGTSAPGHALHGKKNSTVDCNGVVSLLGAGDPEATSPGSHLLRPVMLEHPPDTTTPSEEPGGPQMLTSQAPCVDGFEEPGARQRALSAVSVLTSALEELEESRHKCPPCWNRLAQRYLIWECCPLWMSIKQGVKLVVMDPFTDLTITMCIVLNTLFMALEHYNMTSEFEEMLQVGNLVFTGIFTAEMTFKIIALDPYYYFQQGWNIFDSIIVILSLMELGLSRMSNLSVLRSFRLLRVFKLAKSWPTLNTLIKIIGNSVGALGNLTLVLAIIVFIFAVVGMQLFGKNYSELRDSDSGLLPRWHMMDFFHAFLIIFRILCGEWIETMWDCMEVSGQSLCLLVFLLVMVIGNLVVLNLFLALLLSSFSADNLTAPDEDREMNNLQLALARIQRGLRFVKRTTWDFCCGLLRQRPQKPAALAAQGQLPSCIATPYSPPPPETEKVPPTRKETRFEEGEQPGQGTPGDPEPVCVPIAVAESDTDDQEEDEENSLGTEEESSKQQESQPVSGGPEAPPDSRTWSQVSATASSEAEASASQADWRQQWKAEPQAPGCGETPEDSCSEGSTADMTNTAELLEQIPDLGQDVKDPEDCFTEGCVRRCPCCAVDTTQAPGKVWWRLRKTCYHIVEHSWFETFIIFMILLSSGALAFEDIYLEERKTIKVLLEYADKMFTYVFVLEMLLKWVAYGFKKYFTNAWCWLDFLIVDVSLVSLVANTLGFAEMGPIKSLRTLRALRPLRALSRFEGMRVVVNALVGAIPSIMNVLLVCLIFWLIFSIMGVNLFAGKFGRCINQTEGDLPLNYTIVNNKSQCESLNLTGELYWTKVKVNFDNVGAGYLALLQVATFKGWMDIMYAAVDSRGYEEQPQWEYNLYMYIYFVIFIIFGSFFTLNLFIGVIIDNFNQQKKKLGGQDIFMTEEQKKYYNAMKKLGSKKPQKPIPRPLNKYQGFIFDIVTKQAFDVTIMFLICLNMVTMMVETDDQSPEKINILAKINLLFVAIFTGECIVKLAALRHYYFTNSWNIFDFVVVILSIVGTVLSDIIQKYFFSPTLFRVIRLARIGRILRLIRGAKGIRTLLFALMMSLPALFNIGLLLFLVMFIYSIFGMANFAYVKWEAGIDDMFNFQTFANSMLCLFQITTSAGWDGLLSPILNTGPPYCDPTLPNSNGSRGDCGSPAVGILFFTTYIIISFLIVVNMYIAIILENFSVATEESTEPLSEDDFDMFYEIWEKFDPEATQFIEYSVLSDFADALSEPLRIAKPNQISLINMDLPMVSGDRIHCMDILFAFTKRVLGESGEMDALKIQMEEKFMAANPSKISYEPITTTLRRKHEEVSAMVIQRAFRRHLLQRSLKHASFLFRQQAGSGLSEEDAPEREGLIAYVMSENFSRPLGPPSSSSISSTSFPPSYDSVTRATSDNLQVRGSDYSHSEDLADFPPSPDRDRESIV
SMILES,inhibition at 10 µM [%],inhibition at 1 µM [%]
"CS(=O)(=O)c1ccc(-c2nnc3ccc(-c4ccc(Oc5ccccc5)cc4)nn23)cc1 [BHN-47, 3-[4-(methylsulfonyl)phenyl]-6-(4-phenoxyphenyl)[1,2,4]triazolo[4,3-b]pyridazine]",50.7,
"CC(C)(O)c1ccc(-c2ccc3nnc(C(F)(F)F)n3c2)cc1 [BHN-48, 2-{4-[3-(trifluoromethyl)[1,2,4]triazolo[4,3-a]pyridin-6-yl]phenyl}propan-2-ol]",18.9,
"c1ccc(Oc2ccc(-c3ccc4nnc(-c5ccc(-c6nn[nH]n6)cc5)n4n3)cc2)cc1 [BHN-50, 6-(4-phenoxyphenyl)-3-[4-(2H-tetrazol-5-yl)phenyl][1,2,4]triazolo[4,3-b]pyridazine]",31,
"N#Cc1cccc(-c2nnc3ccc(-c4ccc(F)cc4)nn23)c1 [BHN-51, 3-[6-(4-fluorophenyl)[1,2,4]triazolo[4,3-b]pyridazin-3-yl]benzonitrile]",40.5,
"Nc1cc(-c2ccc(OC(F)(F)F)cc2)cn2c(-c3ccccc3)nnc12 [BHN-52, 3-phenyl-6-[4-(trifluoromethoxy)phenyl][1,2,4]triazolo[4,3-a]pyridin-8-amine]",44.9,
"FC(F)(F)Oc1ccc(-c2ccc3nnc(-c4ccc(OC(F)(F)F)cc4)n3c2)cc1 [BHN-55, 3,6-bis[4-(trifluoromethoxy)phenyl][1,2,4]triazolo[4,3-a]pyridine]",90.7,89.1
"FC(F)(F)c1nnc2ccc(-c3ccc(-c4ccccc4)cc3)cn12 [BHN-57, 6-(biphenyl-4-yl)-3-(trifluoromethyl)[1,2,4]triazolo[4,3-a]pyridine]",39.5,45.8
"COC(=O)/C=C/c1nc(C(F)(F)F)n2cc(-c3ccc(OC(F)(F)F)cc3)ccc12 [BHN-58, methyl (2E)-3-{6-[4-(trifluoromethoxy)phenyl]-3-(trifluoromethyl)imidazo[1,5-a]pyridin-1-yl}prop-2-enoate]",27.6,
"Cn1ncc2cc(-c3ccc4nnc(C(F)(F)F)n4c3)ccc21 [BHN-59, 6-(1-methyl-1H-indazol-5-yl)-3-(trifluoromethyl)[1,2,4]triazolo[4,3-a]pyridine]",39.8,
"CC(C)(O)c1nnc2ccc(-c3ccc(Oc4ccccc4)cc3)nn12 [BHN-60, 2-[6-(4-phenoxyphenyl)[1,2,4]triazolo[4,3-b]pyridazin-3-yl]propan-2-ol]",48.6,
"FC(F)(F)c1nnc2ccc(-c3ccc(-n4cncn4)cc3)cn12 [BHN-61, 6-[4-(1H-1,2,4-triazol-1-yl)phenyl]-3-(trifluoromethyl)[1,2,4]triazolo[4,3-a]pyridine]",23.5,
"Fc1ccc(Oc2ccc(-c3ccc4nnc(C(F)(F)F)n4c3)cc2)cc1 [BHN-64, 6-[4-(4-fluorophenoxy)phenyl]-3-(trifluoromethyl)[1,2,4]triazolo[4,3-a]pyridine]",69.6,38.2
"FC(F)(F)c1nnc2ccc(-c3ccc(Oc4ccc(Cl)cc4)cc3)cn12 [BHN-65, 6-[4-(4-chlorophenoxy)phenyl]-3-(trifluoromethyl)[1,2,4]triazolo[4,3-a]pyridine]",85.7,55.6
"CC(C)(C#N)c1ccc(-c2ccc3nnc(C(F)(F)F)n3c2)cc1 [BHN-66, 2-methyl-2-{4-[3-(trifluoromethyl)[1,2,4]triazolo[4,3-a]pyridin-6-yl]phenyl}propanenitrile]",70.7,33.2
"CC(C)S(=O)(=O)c1ccc(-c2ccc3nnc(C(F)(F)F)n3c2)cc1 [BHN-68, 6-[4-(propan-2-ylsulfonyl)phenyl]-3-(trifluoromethyl)[1,2,4]triazolo[4,3-a]pyridine]",22,
"Cc1nnc2c(N)cc(-c3ccc(OC(F)(F)F)cc3)cn12 [BHN-69, 3-methyl-6-[4-(trifluoromethoxy)phenyl][1,2,4]triazolo[4,3-a]pyridin-8-amine]",32.1,
